Values of other authors, collected in patent publication US8734864B2, “Methods for increasing human growth hormone levels” (Quality IP Holdings, LLC, priority 2012, dated 2014).

Columns and labels:
hGH secretion = details: for Increase in hGH (in words): other amino acids, literature
[1] = subcutaneous injection of 0.06 IU, GH deficient subjects

For N=C(N)NCCC[C@H](N)C(=O)O [arginine], the “Elevation of serum hGH levels” value (hGH secretion; 30 g, males) is given as 8.6 fold and the “Increase of hGH levels” value (hGH secretion; intravenous infusion of 183 mg/kg body weight, females) is given as over 20 fold.

For N[C@@H](Cc1c[nH]cn1)C(=O)O [histidine], the “Increase in hGH (in words)” value (hGH secretion) is given as “marked increases in hGH”.

In the case of NCCCC[C@H](N)C(=O)O [lysine], the “Increase in hGH (in words)” value (hGH secretion) is listed as “marked increases in hGH”.

In the case of CSCC[C@H](N)C(=O)O [methionine], the “Increase in hGH (in words)” value (hGH secretion) is given as “marked increases in hGH”.

In the case of NCCC[C@H](N)C(=O)O [ornithine], the “Increase in hGH (in words)” value (hGH secretion) is given as “marked increases in hGH”.

For N[C@@H](Cc1ccccc1)C(=O)O [phenylalanine], the “Increase in hGH (in words)” value (hGH secretion) is listed as “marked increases in hGH”.

In the case of “HGH: human growth hormone given by subcutaneous injection to GH deficient subjects (literature)”, the “Mean levels of GH reached” value [1] is given as 0.4 ng/mL.
